From US20220096450A1, “Compounds and Methods for Treating or Preventing Heart Failure” (DREXEL UNIVERSITY, priority 2019, published 2022)

How the values were obtained:
[1] = Cell Counting Kit-8 cytotoxicity assay in NVCMs; assay type: cell-based; details: Sprague-Dawley, rat, rat neonatal ventricular cardiomyocytes (NVCMs)
From the text: (§1) Rat neonatal ventricular cardiomyocytes (NVCMs) were isolated from the hearts of 1-2 day old Sprague-Dawley rats (Charles River) in 50-90% yield (70-95% viability) by following the protocol described by Golden et al. (Golden et al., 2012, in Cardiovascular Development. Methods in Molecular Biology (Methods and Protocols), vol 843 (Peng, X., Antonyak, M., Eds.) pp 205-214, Springer, Totowa, N.J.).
(§2) NVCMs are maintained in Dulbecco's modified Eagle's medium (DMEM:F12) containing 20% fetal bovine serum (FBS), 5% horse serum, 1× GlutaMAX, and 2 μg/mL insulin. For hypertrophy studies, cells were plated onto 4-well glass chamber slides, precoated with poly-D-lysine and laminin. The maintenance medium was aspirated after incubation for 72 h. The cells were serum-starved overnight in DMEM:F12 containing 1% FBS, 1× GlutaMAX, and 2 ug/mL insulin and then incubated for 24 h in fresh serum-starved medium containing angiotensin II, as indicated.
Cytotoxicity assays were conducted under the same conditions used for hypertrophy assays with NVCMs or H9C2 cells, as described elsewhere herein.

[2] = tested on: rat neonatal ventricular cardiomyocytes (NVCMs); experiment: Angiotensin II-induced hypertrophy assay in NVCMs; assay type: cell-based; details: 200 nM Ang II 24 h; 10 μM FC9402
From the text: as §1
as §2, with “indicated. […]” for “indicated.”

H9C2 cells = experiment: Isoproterenol-induced hypertrophy assay in H9C2 cells; assay type: cell-based, rat; details: isoproterenol 100 μM 24 h, then 50 μM 24 h; 10.5 μM FC9402
Procedure: H9C2 cells, a rat ventricular cardiomyoblast cell line were obtained from ATCC (CRL-1446) and maintained in Dulbecco's modified Eagle's medium (DMEM) containing 10% FBS and 1× GlutaMAX. For hypertrophy studies, the cells were plated onto 4-well glass chamber slides precoated with poly-D-lysine. The maintenance medium was aspirated after 24 h and the cells were serum-starved overnight in DMEM containing 1% FBS and 1× GlutaMAX and then incubated for 48 h in fresh serum-starved medium containing isoproterenol, as indicated. […] Images were acquired using a FV3000 Olympus Confocal Microscope and analyzed using ImageJ. Cell surface area was determined by encircling the outer membrane of 30-50 cells per field in 6-10 field images for a total of 500 cells per condition.

**Q.** With `COc1nc(-c2ncccc2C)cc(-c2ccc(N)cc2)c1C#N` [FC9402, 4-(4-aminophenyl)-2-methoxy-6-(3-methylpyridin-2-yl)pyridine-3-carbonitrile] as the molecule, how does the CC50 at 24 h [1] read?
**A.** The CC50 at 24 h was 27.9 ± 2.6 µM.

**Q.** And the “angiotensin II-induced hypertrophy (cell surface area)” value [2]?
**A.** The value was “prevents angiotensin II-induced hypertrophy”.

**Q.** And the “hypertrophic response (cell surface area)” value (H9C2 cells)?
**A.** The value was “mitigates the hypertrophic response”.
